Results as given in paper PMC9995496, “A screen for MeCP2-TBL1 interaction inhibitors using a luminescence-based assay” (Scientific Reports, 2023).
Structures can show the parent of a compound that is named as a salt. Where two headings read alike, the source gives them in different places.

System: PRKACA-PRKAR2A interaction (SmBiT-PRKACA / LgBiT-PRKAR2A), protein kinase A
Set-up: NanoLuc complementation counter-screen in cell extract, PRKACA with PRKAR2A, loss of luminescence, detects NanoLuc interference
Conditions: 0.5 h, 20 µM, inhibitor
[1] = counter-screen for NanoLuc interference
[2] = counter-screen for NanoLuc interference, Inh (PKA)

Compound | Inh (PKA) [1] | further results
CCCCC(=O)O[C@H]1CC[C@H]2[C@@H]3CCc4cc(O)ccc4[C@H]3CC[C@]12C [UM0142282:01, Estradiol valerate] | 9.885% | –
CC[C@H](c1ccc(O)cc1)[C@@H](CC)c1ccc(O)cc1 [UM0142283:01, Hexestrol] | 49.6% | –
CC(=O)O[C@]1(C(C)=O)CC[C@H]2[C@@H]3C[C@H](C)C4=CC(=O)CC[C@]4(C)[C@H]3CC[C@@]21C [UM0142284:01, Medroxyprogesterone acetate] | 6.658% | –
CC(=O)[C@H]1CC[C@H]2[C@@H]3CC=C4C[C@@H](O)CC[C@]4(C)[C@H]3CC[C@]12C [UM0142285:01, Pregnenolone] | 6.585% | –
C[C@]12CCC3=C4CCC(=O)C=C4CC[C@H]3[C@@H]1CC[C@@]2(O)CC#N [UM0142287:01, Dienogest] | -0.135% | –
C#C[C@]1(O)C=C[C@H]2[C@@H]3CCC4=CC(=O)CC[C@@H]4[C@H]3CC[C@@]21CC [UM0142288:01, Gestodene] | 7.119% | –
CS(=O)(=O)c1cccc(CNc2nc(Nc3ccc4c(c3)CCC(=O)N4)ncc2C(F)(F)F)c1 [UM0142290:01, PF-573228] | 25.03% | –
COc1c(C)c(C(=O)c2ccc(N)c(C(=O)O)c2)n2ccccc12 [UM0142292:01, SSR128129E] | 31.08% | –
CC(C)c1onc(-c2c(Cl)cccc2Cl)c1COc1ccc(/C=C/c2cccc(C(=O)O)c2)c(Cl)c1 [UM0142293:01, GW4064] | 30.87% | –
NCC1(CC(=O)O)CCCCC1 [UM0142295:01, Gabapentin HCl] | – | Inh (PKA) [2]: 0.4431%
COc1ccnc2[nH]cc(C(=O)C(=O)N3CCN(C(=O)c4ccccc4)C[C@H]3C)c12 [UM0142297:01, BMS-378806] | 0.2509% | –
N#Cc1ccc2[nH]c(O)c(-c3ccc(CN4CCOCC4)cn3)c2c1 [UM0142298:01, AZD1080] | 15.47% | –
CC(C)(C)c1ccc(CN2CCN(C(c3ccccc3)c3ccc(Cl)cc3)CC2)cc1 (centres unmarked) [UM0142302:01, Buclizine HCl] | 2.001% | –
CN/C(=N\CCSCc1nc[nH]c1C)NC#N [UM0142305:01, Cimetidine] | 1.548% | –
Cc1ccc2c(c1)c1c(n2CCc2ccc(C)nc2)CCN(C)C1 [UM0142307:01, Latrepirdine] | 3.431% | –
CN(C)CC/C=C1/c2ccccc2COc2ccc(CC(=O)O)cc21 [UM0142309:01, Olopatadine HCl] | -1.243% | –
CCC(CC)(NC(=O)C(C)C)C(=O)N[C@@H](CCCN=C(N)N)C(=O)NC1(C(=O)NC(c2ccc(F)cc2)c2ccc(F)cc2)CCCC1 [UM0142313:01, MM-102] | 12.23% | –
O=C(c1ccc(Nc2nccc(-c3cc4ccccc4s3)n2)cc1)N1CCC(N2CCCC2)CC1 [UM0142314:01, IKK-16 (IKK Inhibitor VII)] | 16.61% | –
O=C(Nc1cc(C(F)(F)F)cc(C(F)(F)F)c1)c1cc(Cl)ccc1O [UM0142315:01, IMD 0354] | 90.14% | –
C1=N/C2=N/c3ccc(OCCN4CCCC4)c(c3)COC/C=C/COCc3cccc(c3)C(=C1)N2 [UM0142316:01, Pacritinib (SB1518)] | 30.05% | –
Cc1ccc(C(=O)N(CCCN)[C@@H](c2oc3cc(Cl)ccc3c(=O)c2Cc2ccccc2)C(C)C)cc1 [UM0142317:01, SB743921] | 14.68% | –

Compound | Inh (PKA) [1] | further results
Nc1nc(N)nc(-c2cc(Cl)ccc2Cl)n1 [UM0142318:01, Irsogladine] | 5.104% | –
C[N+](C)(C)CCOC(=O)CCC(=O)OCC[N+](C)(C)C [UM0142319:01, Succinylcholine Chloride Dihydrate] | -1.734% | –
O=C(O[C@H]1C[N+]2(CCCOc3ccccc3)CCC1CC2)C(O)(c1cccs1)c1cccs1 [UM0142325:01, Aclidinium Bromide] | 1.77% | –
C[N+]1(C)[C@@H]2C[C@@H](OC(=O)[C@H](CO)c3ccccc3)C[C@H]1[C@@H]1O[C@@H]12 [UM0142326:01, Methscopolamine] | 1.249% | –
COc1cc(OC)c(NC(=O)Nc2cc(C)on2)cc1Cl [UM0142328:01, PNU-120596] | 15.14% | –
Cn1c(=O)c(F)c(Nc2ccc(I)cc2F)c2c(=O)n(C[C@@H](O)CO)cnc21 [UM0142329:01, TAK-733] | 15.12% | –
Cc1cc(Nc2ccc(NC(=O)c3ccc(Nc4ccnc5ccccc45)cc3)cc2)nc(N)n1 [UM0142330:01, SGI-1027] | 9.462% | –
c1cncc(CN2CCC(n3ncc4c(N5CCOCC5)nc(-c5ccc6[nH]ccc6c5)nc43)CC2)c1 [UM0142335:01, WAY-600] | 7.744% | –
CNC(=O)Nc1ccc(-c2nc(N3CC4CCC(C3)O4)c3cnn(C4CCC5(CC4)OCCO5)c3n2)cc1 [UM0142336:01, WYE-125132 (WYE-132)] | 31.62% | –
Cc1ccc(NCCCc2ccccc2)c(N)c1 [UM0142338:01, JSH-23] | 14.43% | –
Nc1c(CC(=O)O)cccc1C(=O)c1ccccc1 [UM0142341:01, Amfenac Sodium Monohydrate] | 3.127% | –
Nc1c(CC(=O)O)cccc1C(=O)c1ccc(Br)cc1 [UM0142342:01, Bromfenac Sodium] | 5.05% | –
CC(C(=O)O)c1ccc2c(c1)[nH]c1ccc(Cl)cc12 (centres unmarked) [UM0142344:01, Carprofen] | 82.74% | –
CO/N=C(\C(=O)N[C@@H]1C(=O)N2C(C(=O)O)=C(CSc3nc(=O)c(O)nn3C)CS[C@H]12)c1csc(N)n1 [UM0142345:01, Ceftriaxone Sodium Trihydrate] | 3.455% | –
Cc1c(O)c(=O)ccn1C [UM0142352:01, Deferiprone] | 0.006466% | –
CN(C)CCOC(C)(c1ccccc1)c1ccccn1 (centres unmarked) [UM0142354:01, Doxylamine Succinate] | 1.104% | –
CCOC(CN1CCN(CC(C)C(=O)c2ccccc2)CC1)c1ccccc1 (centres unmarked) [UM0142356:01, Eprazinone 2HCl] | 5.222% | –
COC(=O)Nc1nc2cc(C(=O)c3ccc(F)cc3)ccc2[nH]1 [UM0142358:01, Flubendazole] | 6.18% | –
CCC(=O)O[C@]1(C(=O)CCl)[C@@H](C)C[C@H]2[C@@H]3C[C@H](F)C4=CC(=O)C=C[C@]4(C)[C@@]3(F)[C@@H](O)C[C@@]21C [UM0142361:01, Halobetasol Propionate] | 7.218% | –
NCCc1c[nH]cn1 [UM0142362:01, Histamine Phosphate] | – | Inh (PKA) [2]: -0.9808%
CCCCCN(C)CCC(O)(P(=O)(O)O)P(=O)(O)O [UM0142363:01, Ibandronate sodium] | 1.018% | –

Compound | Inh (PKA) [1] | further results
CC(C)CC(N)=O [UM0142364:01, Isovaleramide] | -0.438% | –
CN(C)c1ccc(O)c2c1C[C@H]1C[C@H]3[C@H](N(C)C)C(O)=C(C(N)=O)C(=O)[C@@]3(O)C(O)=C1C2=O [UM0142369:01, Minocycline HCl] | 5.155% | –
NC[C@@H]1O[C@H](O[C@H]2[C@@H](O)[C@H](O[C@@H]3[C@@H](O)[C@H](N)C[C@H](N)[C@H]3O[C@H]3O[C@H](CN)[C@@H](O)[C@H](O)[C@H]3N)O[C@@H]2CO)[C@H](N)[C@@H](O)[C@@H]1O [UM0142371:01, Neomycin sulfate] | 1.127% | –
CCN[C@@H]1C[C@H](N)[C@@H](O[C@H]2OC(CN)=CC[C@H]2N)[C@H](O)[C@H]1O[C@H]1OC[C@](C)(O)[C@H](NC)[C@H]1O [UM0142372:01, Netilmicin Sulfate] | -0.6216% | –
CC[C@@H]1/C=C(\C)C[C@H](C)C[C@H](OC)[C@H]2O[C@@](O)(C(=O)C(=O)N3CCCC[C@H]3C(=O)O[C@H](/C(C)=C/[C@@H]3CC[C@H](Cl)[C@H](OC)C3)[C@H](C)[C@@H](O)CC1=O)[C@H](C)C[C@@H]2OC [UM0142376:01, Pimecrolimus] | 0.5953% | –
Nc1ccc2cc3ccc(N)cc3nc2c1 [UM0142377:01, Proflavine Hemisulfate] | 0.7107% | –
NC[C@H]1O[C@H](O[C@H]2[C@H](O[C@@H]3O[C@H](CO)[C@@H](O)[C@H]3O)[C@@H](O)[C@H](N)C[C@@H]2N)[C@H](N)[C@@H](O)[C@@H]1O [UM0142378:01, Ribostamycin Sulfate] | 35.19% | –
Cc1ccc(C(=O)C(C)CN2CCCCC2)cc1 (centres unmarked) [UM0142383:01, Tolperisone HCl] | -1.099% | –
NC[C@H]1CC[C@H](C(=O)O)CC1 [UM0142384:01, Tranexamic Acid] | 2.588% | –
CCC[S+]([O-])c1ccc2[nH]c(NC(=O)OC)nc2c1 (centres unmarked) [UM0142387:01, Albendazole Oxide] | 2.774% | –
C=CCNC(N)=S [UM0142388:01, Allylthiourea] | 3.519% | –
Oc1ccc(OC2CCCCO2)cc1 (centres unmarked) [UM0142392:01, Deoxyarbutin] | 1.229% | –
O=C(O)Cc1ccccc1Nc1c(Cl)cccc1Cl [UM0142393:01, Diclofenac Diethylamine] | – | Inh (PKA) [2]: 11.28%
C[C@]12CC[C@@H]3c4ccc(OC(=O)c5ccccc5)cc4CC[C@H]3[C@@H]1CC[C@@H]2O [UM0142395:01, Estradiol Benzoate] | 19.47% | –
O=C(Oc1ccc([N+](=O)[O-])cc1)N1CCC(C(O)(c2ccc3c(c2)OCO3)c2ccc3c(c2)OCO3)CC1 [UM0142396:01, JZL184] | – | Inh (PKA): 16.72%
CN(C)C(=N)NC(=N)N [UM0142397:01, Metformin HCl] | 1.975% | –
O=C(NC(Cc1cc(=O)[nH]c2ccccc12)C(=O)O)c1ccc(Cl)cc1 (centres unmarked) [UM0142401:01, Rebamipide] | 2.079% | –
C=C[C@]1(C)C[C@@H](OC(=O)CS[C@@H]2C[C@H]3CC[C@@H](C2)N3C)[C@]2(C)[C@H](C)CC[C@]3(CCC(=O)[C@H]32)[C@@H](C)[C@@H]1O [UM0142402:01, Retapamulin] | 4.258% | –
CCCN1CCCC[C@H]1C(=O)Nc1c(C)cccc1C [UM0142404:01, Ropivacaine HCl] | 0.01917% | –
Cc1ccc(S(=O)(=O)Cc2nc(-c3ccc(C(=O)NCc4cccnc4)cc3)oc2C)cc1 [UM0142406:01, STF-118804] | 1.65% | –
